Here are results for three molecules from patent US9012441B2, “Therapeutic compounds” (Gilead Sciences, Inc., priority 2013, dated 2015).

Like-named read-outs stand apart in the source and are kept apart here.

For orientation: inhibition means the share of the control response that was lost under treatment. As a reminder, the CC50 is the concentration giving 50% cytotoxicity.

The test system of one series is HIV-IIIb. The experiment in a line: Test A: Antiviral Assay in MT4 Cells. The series is classed as cell-based, HIV-1. As to conditions: Human immunodeficiency virus 1, MT4, 120 h, read-out: % Inh @ 2 uM (percent inhibition of virus-induced cell killing); 2 uM test compound; MT-4 cells infected with HIV-IIIb, 5 days, CellTiter-Glo. The method, then:
(§1) Test A: Antiviral Assay in MT4 Cells For the antiviral assay, 40 μL of 1× test concentration of 3-fold serially diluted compound in culture medium with 10% FBS was added to each well of a 384-well plate (10 concentrations) in quadruplicate. MT-4 cells were next mixed with HIV-IIIb at an m.o.i of 0.003 for 1 hour, after which time 35 μL of virus/cell mixture (2000 cells) was immediately added to each well containing 40 μL of diluted compound. The plates were then incubated at 37° C. for 5 days. After 5 days of incubation, 25 μl of 2× concentrated CellTiter-Glo™ Reagent (catalog #G7571, Promega Biosciences, Inc., Madison, Wis.) was added to each well containing MT-4 cells. Cell lysis was carried out by incubating at room temperature for 10 min and then chemiluminescence was read. […] Accordingly, the compounds disclosed herein may be useful for treating an HIV virus infection, treating AIDS or for delaying the onset of AIDS or ARC symptoms.
A general note: Cellular ATP, detected with luciferase, serves as a proxy for viable cell number.

The conditions of series [1]: DMF.
A short description of series [2]: Test B: Cytotoxicity Assay (uninfected MT-4 cells). Type of series: cell-based. The conditions noted are these: human, same protocol as Test A, read-out: MT4-CC50. The method, then:
as §1, with “For” for “Test A: Antiviral Assay in MT4 Cells For”, “Test B: Cytotoxicity Assay Compound cytotoxicity and” for “Accordingly,”, “corresponding CC50 values were determined using” for “compounds disclosed herein may be useful for treating an HIV virus infection, treating AIDS or for delaying”, “same protocol as described in the antiviral assay (Test A) except that uninfected cells were used.” for “onset of AIDS or ARC symptoms.”

Turning to `COc1ccc(N(C)C(=O)[C@@H]2Cc3cccc(c3)CSCc3[nH]c4ccccc4c3CC(=O)N2)cc1` [Example 15, (10S)—N-(4-methoxyphenyl)-N-methyl-12-oxo-9,10,11,12,13,18-hexahydro-1H-8,4-(metheno)[1,7]thiazacyclopentadecino[3,4-b]indole-10(3H)-carboxamide], in the series with HIV-IIIb, the inhibition at 2 µM was 95.8%. The same molecule returned a ring closure, yield of all isomers in series [1] (from COc1ccc(N(C)C(=O)[C@@H](N)Cc2cccc(CSCc3[nH]c4ccccc4c3CC(=O)O)c2)cc1, amide bond, DPPA, DIPEA, 3.01 mM, 25.0 °C, 16.0 h) of 49.1%. The CC50 at 5 days in series [2] was over 51.4 µM.

As to `COc1ccc(N(C)C(=O)[C@@H]2Cc3cccc(c3)CSc3[nH]c4ccccc4c3CC(=O)N2)cc1` [Example 20, (9S)—N-(4-methoxyphenyl)-N-methyl-11-oxo-8,9,10,11,12,17-hexahydro-7,3-(metheno)[1,6]thiazacyclotetradecino[2,3-b]indole-9(2H)-carboxamide], the inhibition at 2 µM in the series with HIV-IIIb was found to be 97.7%. The molecule further yielded a ring closure, yield of all isomers in series [1] (from COc1ccc(N(C)C(=O)[C@@H](N)Cc2cccc(CSc3[nH]c4ccccc4c3CC(=O)O)c2)cc1, amide bond, DPPA, DIPEA, 3.0 mM, 25.0 °C, 16.0 h) of 65.8%. Moreover, in series [2], the CC50 at 5 days worked out at 45.2 µM.

For the molecule `CN(C(=O)[C@@H]1Cc2cccc(c2)CCCc2cc(C(F)(F)F)nn2CC(=O)N1)c1ccc(Cl)cc1` [Example 32], in the series on HIV-IIIb, the inhibition at 2 µM came out at 72.3%. In series [1] (from C=CCc1cc(C(F)(F)F)nn1CC(=O)N[C@@H](Cc1cccc(Br)c1)C(=O)N(C)c1ccc(Cl)cc1, cc_pd bond, Pd(OAc)2 / 2-di-tert-butylphosphino-2'-(N,N-dimethylamino)biphenyl / triethylamine, 2.81 mM, 120.0 °C, 2 steps), this molecule had a ring closure, yield of all isomers of 15%. The CC50 at 5 days in series [2] is 22.5 µM.
